Experiment [1] deals with Sodium-dependent serotonin transporter (Homo sapiens, UniProt P31645). The experiment is described as follows: Displacement of [3H]citalopram from SERT. On the technique in general: Displacement assays read how much labelled ligand stays bound in the presence of the test substance.
Experiment [2] addresses Sodium-dependent noradrenaline transporter (Homo sapiens, UniProt P23975). The experiment is described as follows: Displacement of [3H]nisoxetine from NET.
Experiment [3] concerns the target T1, Muscarinic acetylcholine receptor M1 (Homo sapiens, UniProt P11229).
T1 sequence (P11229 whole entry): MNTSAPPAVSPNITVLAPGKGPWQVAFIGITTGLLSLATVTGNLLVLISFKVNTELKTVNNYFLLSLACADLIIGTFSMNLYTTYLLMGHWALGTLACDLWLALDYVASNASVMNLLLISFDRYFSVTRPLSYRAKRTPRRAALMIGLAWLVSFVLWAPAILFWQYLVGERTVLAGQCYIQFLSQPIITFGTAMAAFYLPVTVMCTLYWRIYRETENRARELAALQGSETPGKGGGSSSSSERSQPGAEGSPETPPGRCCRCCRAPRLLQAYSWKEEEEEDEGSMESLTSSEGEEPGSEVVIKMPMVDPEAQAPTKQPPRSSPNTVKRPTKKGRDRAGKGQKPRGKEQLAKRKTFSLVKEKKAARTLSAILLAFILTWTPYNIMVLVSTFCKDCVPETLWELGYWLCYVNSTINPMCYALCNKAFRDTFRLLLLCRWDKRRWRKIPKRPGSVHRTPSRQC
The experiment can be described thus: Displacement of [3H]pirenzepine from Muscarinic receptor M1.

Experiment [4] in a line: Selectivity of Muscarinic receptor M1 over DAT.
The nature of experiment [5]: Selectivity of SERT over DAT.
Experiment [6] can be described thus: Selectivity of NET over DAT.
Experiment [7] concerns the target Sodium-dependent dopamine transporter (Rattus norvegicus, UniProt P23977). The experiment is described as follows: Displacement of [3H]WIN-from DAT in rat brain membrane. Type of experiment: cell membranes.

Chain of Sodium-dependent serotonin transporter (P31645 whole entry): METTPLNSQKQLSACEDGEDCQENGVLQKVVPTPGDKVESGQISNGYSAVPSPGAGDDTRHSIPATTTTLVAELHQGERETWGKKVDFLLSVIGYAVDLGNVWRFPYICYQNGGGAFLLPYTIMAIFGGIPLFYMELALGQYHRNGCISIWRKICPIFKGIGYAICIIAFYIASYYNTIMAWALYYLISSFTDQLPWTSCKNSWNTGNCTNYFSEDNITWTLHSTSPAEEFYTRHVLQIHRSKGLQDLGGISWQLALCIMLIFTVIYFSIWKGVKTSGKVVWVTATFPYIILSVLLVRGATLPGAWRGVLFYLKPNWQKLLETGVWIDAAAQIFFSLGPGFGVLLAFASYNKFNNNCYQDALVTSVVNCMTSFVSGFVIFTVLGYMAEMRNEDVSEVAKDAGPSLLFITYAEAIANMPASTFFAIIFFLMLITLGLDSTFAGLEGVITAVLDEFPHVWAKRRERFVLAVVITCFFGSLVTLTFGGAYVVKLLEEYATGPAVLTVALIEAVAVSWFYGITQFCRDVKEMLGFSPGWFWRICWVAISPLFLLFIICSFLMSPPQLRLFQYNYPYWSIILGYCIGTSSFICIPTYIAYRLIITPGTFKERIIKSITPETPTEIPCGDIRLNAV
Chain of Sodium-dependent noradrenaline transporter (P23975 whole entry): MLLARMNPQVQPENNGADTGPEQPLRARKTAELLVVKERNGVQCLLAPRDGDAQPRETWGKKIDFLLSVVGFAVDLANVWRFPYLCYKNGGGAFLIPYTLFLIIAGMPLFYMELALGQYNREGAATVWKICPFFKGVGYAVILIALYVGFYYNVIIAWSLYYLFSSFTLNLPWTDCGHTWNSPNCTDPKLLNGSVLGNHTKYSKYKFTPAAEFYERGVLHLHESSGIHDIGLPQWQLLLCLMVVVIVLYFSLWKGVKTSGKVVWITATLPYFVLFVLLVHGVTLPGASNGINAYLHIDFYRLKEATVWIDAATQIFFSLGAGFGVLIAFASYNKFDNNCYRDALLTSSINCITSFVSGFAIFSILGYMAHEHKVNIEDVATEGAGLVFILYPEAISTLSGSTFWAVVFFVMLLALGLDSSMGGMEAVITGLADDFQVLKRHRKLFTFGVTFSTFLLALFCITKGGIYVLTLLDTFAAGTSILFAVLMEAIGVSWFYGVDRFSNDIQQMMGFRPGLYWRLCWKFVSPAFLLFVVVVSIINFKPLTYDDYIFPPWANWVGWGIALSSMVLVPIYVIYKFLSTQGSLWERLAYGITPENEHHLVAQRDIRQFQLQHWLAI
Chain of Sodium-dependent dopamine transporter (P23977 whole entry): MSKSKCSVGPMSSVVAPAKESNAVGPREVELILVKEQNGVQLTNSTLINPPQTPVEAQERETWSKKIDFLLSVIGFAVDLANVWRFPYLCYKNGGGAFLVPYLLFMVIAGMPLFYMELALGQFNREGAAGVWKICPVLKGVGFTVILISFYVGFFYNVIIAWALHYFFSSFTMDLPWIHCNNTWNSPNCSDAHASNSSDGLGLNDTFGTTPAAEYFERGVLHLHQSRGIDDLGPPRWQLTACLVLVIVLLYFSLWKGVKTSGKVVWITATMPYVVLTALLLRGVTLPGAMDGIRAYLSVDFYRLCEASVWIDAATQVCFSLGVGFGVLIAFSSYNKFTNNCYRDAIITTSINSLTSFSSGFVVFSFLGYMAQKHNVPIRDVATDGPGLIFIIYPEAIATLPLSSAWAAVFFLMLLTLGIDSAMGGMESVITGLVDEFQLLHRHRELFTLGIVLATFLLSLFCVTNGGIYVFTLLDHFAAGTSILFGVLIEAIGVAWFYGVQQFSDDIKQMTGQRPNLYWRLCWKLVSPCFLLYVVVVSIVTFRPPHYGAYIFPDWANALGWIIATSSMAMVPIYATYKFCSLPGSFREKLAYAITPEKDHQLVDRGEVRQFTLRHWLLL

For orientation: Ki means the equilibrium dissociation constant of an inhibitor or competing ligand from its target. Read a high Ki as weaker binding. Take `NCCN1[C@@H]2CC[C@H]1C[C@@H](NC(c1ccc(F)cc1)c1ccc(F)cc1)C2`: the figures for the Ki in experiment [1], in experiment [2] and in experiment [3] were 10.9 µM, 3.55 µM and 2110 nM, respectively. Also, the Ratio Ki in experiment [4] was 169.
`CN1C2CCC1CC(OC(c1ccc(F)cc1)c1ccc(F)cc1)C2` (stereo unspecified) [DIFLUOROBENZTROPINE]: the Ki is 3.26 µM in experiment [1], 0.844 µM in experiment [2] and 11.6 nM in experiment [3].
Turning to `CN1[C@@H]2CC[C@H]1C[C@@H](NC(c1ccc(Cl)cc1)c1ccc(Cl)cc1)C2`, the Ki was found to be 4.18 µM in experiment [1], 7.58 µM in experiment [2] and 50 nM in experiment [3].
In the case of `CN1[C@@H]2CC[C@H]1C[C@@H](NC(c1ccccc1)c1ccc(Cl)cc1)C2` (stereo partly specified), the Ki was 13.6 µM in experiment [1], 3.17 µM in experiment [2] and 9.3 nM in experiment [3]. Besides, the Ratio Ki in experiment [5] was 373; in experiment [6] it was 87; in experiment [4] it was 0.3.
In experiment [7], `NCCN1[C@@H]2CC[C@H]1C[C@@H](OC(c1ccc(F)cc1)c1ccc(F)cc1)C2` registered an inhibitory constant (Ki) of 5.59 nM.
For `CN1[C@@H]2CC[C@H]1C[C@H](NC(c1ccc(F)cc1)c1ccc(F)cc1)C2`, the inhibitory constant (Ki) in experiment [1] turned out to be 48.5 µM; in experiment [2] it was 152 µM; in experiment [3] it was 59.4 nM. In addition, the Ratio Ki in experiment [5] amounted to 73; in experiment [6], 230; in experiment [4], 0.1.
With `CN1[C@@H]2CC[C@H]1C[C@@H](NC(c1ccc(Cl)c(Cl)c1)c1ccc(Cl)c(Cl)c1)C2`, the figures for the Ki in experiment [1], in experiment [2] and in experiment [3] were 3.01 µM, 0.259 µM and 17.8 nM, respectively. In addition, the Ratio Ki in experiment [5] turned out to be 563; in experiment [6], 48; in experiment [4], 3.
With `CCCCN1[C@@H]2CC[C@H]1C[C@@H](NC(c1ccc(F)cc1)c1ccc(F)cc1)C2`, the values for the Ki in experiment [1], in experiment [2] and in experiment [3] were 2.64 µM, 2.92 µM and 454 nM, respectively. The Ratio Ki in experiment [5] stood at 123; in experiment [6], 136; in experiment [4], 21.
Regarding `Fc1ccc(C(N[C@H]2C[C@H]3CC[C@@H](C2)N3)c2ccc(F)cc2)cc1`, the Ki came out at 4.15 µM in experiment [1], 0.997 µM in experiment [2] and 154 nM in experiment [3]. Besides, the Ratio Ki in experiment [5] is 491; in experiment [6], 118; in experiment [4] it was 18.
Take `Fc1ccc(C(N[C@H]2C[C@H]3CC[C@@H](C2)N3CCCCc2ccccc2)c2ccc(F)cc2)cc1`: the Ki in experiment [1] was found to be 0.502 µM; in experiment [2], 1.63 µM; in experiment [3], 438 nM. In addition, the Ratio Ki is 43 in experiment [5], 139 in experiment [6] and 37 in experiment [4].
`Fc1ccc(C(O[C@H]2C[C@H]3CC[C@@H](C2)N3CCc2c[nH]c3ccccc23)c2ccc(F)cc2)cc1` came in with a Ki in experiment [7] of 29.2 nM.
As to `Fc1ccc(C(N[C@H]2C[C@H]3CC[C@@H](C2)N3CCc2c[nH]c3ccccc23)c2ccc(F)cc2)cc1`, the Ki amounted to 0.347 µM in experiment [1], 8.25 µM in experiment [2] and 413 nM in experiment [3].
In experiment [7], `O=C(CCN1[C@@H]2CC[C@H]1C[C@@H](OC(c1ccc(F)cc1)c1ccc(F)cc1)C2)Nc1ccccc1` displayed an inhibitory constant (Ki) of 6.22 nM.
Take `C=CCN1[C@@H]2CC[C@H]1C[C@@H](NC(c1ccc(F)cc1)c1ccc(F)cc1)C2`: the Ki in experiment [1] was determined as 3.92 µM; in experiment [2], 5.58 µM; in experiment [3] it was 130 nM. The Ratio Ki in experiment [5] was determined as 146; in experiment [6], 208; in experiment [4] it was 5.
For the compound `CN1[C@@H]2CC[C@H]1C[C@@H](NC(c1ccc(F)cc1)c1ccc(F)cc1)C2`, the Ki was 8.68 µM in experiment [1], 1.81 µM in experiment [2] and 7.81 nM in experiment [3]. The Ratio Ki in experiment [5] was 769; in experiment [6], 160; in experiment [4], 0.7.
Regarding `O=C(CCN1[C@@H]2CC[C@H]1C[C@@H](NC(c1ccc(F)cc1)c1ccc(F)cc1)C2)Nc1ccccc1`, the Ki turned out to be 0.608 µM in experiment [1], 2.47 µM in experiment [2] and 2540 nM in experiment [3]. Further, the figures for the Ratio Ki in experiment [5], in experiment [6] and in experiment [4] were 132, 536 and 551, respectively.
Take `CN(C(c1ccc(F)cc1)c1ccc(F)cc1)[C@H]1C[C@H]2CC[C@@H](C1)N2C`: the values for the Ki in experiment [1], in experiment [2] and in experiment [3] were 17.2 µM, 8.41 µM and 18.6 nM, respectively. The Ratio Ki in experiment [5] is 140; in experiment [6], 68; in experiment [4] it was 0.2.

Source of the values: ChEMBL document CHEMBL1141240, “N-8-Substituted benztropinamine analogs as selective dopamine transporter ligands” (Bioorg Med Chem Lett, 2005).
